According to patent publication US11938129B2, “Methods and compositions for the treatment of vascular disease” (THE GENERAL HOSPITAL CORPORATION, priority 2018, dated 2024):

System: VSMC phenotypic markers
Experiment: expression of VSMC phenotypic markers in aortas of treated Fbn1C1039G/+ mice
Assay type: in vivo, mouse
Settings: aortas of Fbn1C1039G/+ mice treated from two to six months
Protocol: Total RNA was prepared from tissue or primary cells using RNeasy kit (Qiagen) following the manufacturer's protocol. The cDNA was prepared by reverse transcription, and expression of SMC contractile genes were analyzed by qRT-PCR on SYBR green system (Applied Biosystem, Foster city, CA). 50 pL of plasma from wild-type or Fbn1cl° 39G1+ mice were used to prepare total RNA as mentioned above. Expression results were analyzed by the ddCT method and GAPDH (encoding glyceraldehyde-3-phosphate dehydrogenase) was used as a housekeeping gene. Fold change were calculated by taking the average over all the control samples as the baseline. […] The supernatant was removed and the vesicular fraction was resuspended with 750 pL of TRizol reagent followed by RNA extraction using the RNeasy kit (Qiagen) according to the manufacturer's protocol. Cohorts of 8-week-old wild-type or Fbn1cw3gGi+ mice were treated with oral administration in drinking water of either Losartan or GSK343 for 20 weeks (FIG. 5). […] Then 200 mL of drinking water was supplemented with 250 pL of GSK343 stock solution. Control group for either drug treatment was given with equal volumes of sterile water. Bottles containing either losartan or GSKS343 were replaced with fresh water supplied with drugs every 3 days. For experiments described in FIG. 5A-5C, 16-week-old wild-type or Fbnicw3gGi+ mice were treated for 8 weeks and as described above. Additionally, a group of mice were given a combination of both losartan and GSK343 at the same concentrations as of other single drug treatments. Aortic dimensions were monitored monthly by echocardiograms as mentioned above.

`CCCc1cc(C)[nH]c(=O)c1CNC(=O)c1cc(-c2ccnc(N3CCN(C)CC3)c2)cc2c1cnn2C(C)C` [GSK343] was tested, and the contractile elements was “better recovery of contractile elements” and the “synthetic markers (Col1a1, Col3a1, Gja1, Mmp2)” value was “inability to repress synthetic markers”.
